Test results reported in article PMC7602804 (Nutrients, 2020).

Tests used:
[1] = test system: Caco-2 monolayers; test: Apical to basolateral transport of milk peptides across Caco-2 monolayers (LC-MS/MS of basolateral medium); format: in vitro ADME, human; details: A-B, HBSS + 10 mM HEPES, 2.5 h; for Peptide identified in the basolateral chamber of Caco-2 monolayers (transported): Caco-2, 3 weeks on PET inserts 0.4 μm, TEER above 400 Ω cm^2, mix of 192 purified milk peptides 0.1 mg/mL apical, LC-MS/MS of basolateral medium, identified in two out of three experiments; for Peptides identified in the basolateral chamber of Caco-2 monolayers after synthetic PIGSENSEKTTMPLW was added apically: synthetic PIGSENSEKTTMPLW 2 µg/mL apical, LC-MS/MS
Experimental: The human colorectal adenocarcinoma cell line, Caco-2, was obtained from DSMZ (Braunschweig, Germany). The cells were grown to 50–60% confluence in Dulbecco’s Modified Eagle Medium (DMEM) Glutamax cell culture medium, supplemented with 10% heat-inactivated fetal bovine serum, 100 units/mL of penicillin and 100 μg/mL of streptomycin (all from Invitrogen, Carlsbad, CA, USA) in a humidified 5% CO2/95% air atmosphere at 37 °C. The cells used in the experiments were between passages 30 and 40.
The Caco-2 cells used for transport studies were seeded in polyethylene terephthalate culture inserts, with a pore size of 0.4 μm and a growth area of 0.33 cm^2 at a density of approximately 25,000 cells/insert. The Caco-2 cells were grown for three weeks on the porous membrane before they were used for transepithelial transport. The integrity of the monolayers was confirmed by measuring the TEER using a Millicell ERS-2 volt ohmmeter. Only Caco-2 monolayers with TEER values above 400 Ω cm^2 were used for the transport analysis.
(§1) Following the TEER value measurement, the Caco-2 and PBEC monolayers were gently washed twice with phosphate-buffered saline, and the transport medium (Hanks’ Balanced Salt solution supplemented with 10 mM of HEPES) was added to the apical and basolateral compartments. The inserts were incubated for 15 min or 2.5 h with the purified milk peptides (0.1 mg/mL) or the synthetic PIGSENSEKTTMPLW peptide (2 µg/mL), after which medium from the apical and basolateral compartments were collected for liquid chromatography tandem mass spectrometry (LC-MS/MS) analysis. Inserts incubated with a medium without peptides served as the control in the transport experiments. Membrane integrity was validated by addition of D-[1-^14C]-Mannitol (3.5 µM, 56.8 mCi/mmol) (Perkin Elmer, Waltham, MA, USA) to the upper chamber of the culture inserts with or without milk peptides for 2.5 h. The passive permeability experiments were performed on four or five individual culture inserts. Basolateral samples were mixed with Ultima Gold liquid scintillation fluid (Perkin Elmer) and counted in a Tri-Carb 2810 TR scintillation counter (Perkin Elmer). The apparent permeability coefficient (Papp, cm/s) was determined as Papp = (dQ/dt)/(AC0) where dQ/dt is the steady state flux (cpm/s), A is the surface area of the cell culture insert membrane and C0 is the initial concentration in the apical compartment (cpm/mL).
LC-MS/MS analysis was performed on a TripleTOF 6600 mass spectrometer equipped with an Exigent nanoLC 415 system (AB Sciex, Les Ulis, France). All samples were micro-purified using 3 M Empore C18 discs packed in pipette tips. The lyophilized samples were dissolved in 0.1% formic acid, injected on a trap column (2 cm × 100 µm inner diameter) and separated on an analytical column packed in-house in a pulled emitter (15 cm × 75 µm inner diameter). All columns were packed with ReproSil-Pur C18-AQ 3 µm resin (courtesy of Dr. Marisch, Ammerbuch-Entringen, Germany). Peptides were eluted directly into the mass spectrometer with a linear gradient from 5 to 35% solvent B (0.1% formic acid in acetonitrile) for 20 min with a flowrate of 250 nL/min, followed after 10 min with 100% solvent B. Data files were converted to Mascot Generic Format using the Raw Converter (version 1.1.0.18) (http://fields.scripps.edu/rawconv/) or the AB Sciex MS Data Converter beta 1.1 (AB Sciex, Les Ulis, France). The generated peak lists were searched against the Bos taurus proteome (UniProt database, https://www.uniprot.org)) using an in-house Mascot search engine (Matrix Science, London, UK). The searches were made without specifying a protease and with oxidation (Met) and phosphorylation (ST) as variable modifications. Peptide tolerance was set to 10 ppm and MS/MS tolerance was set to 0.2 Da. […]

[2] = test system: porcine brain endothelial cell (PBEC) monolayers; test: Apical to basolateral transport of milk peptides across porcine brain endothelial cell (PBEC) monolayers, blood-brain barrier model; format: in vitro ADME; details: A-B, HBSS + 10 mM HEPES, 2.5 h, LC-MS/MS; for Peptide identified in the basal compartment (brain side) of the PBEC BBB model (transported): primary PBEC on polyester inserts 0.4 μm, astrocyte conditioned medium, TEER higher than 800 Ω cm^2, mix of 192 milk peptides 0.1 mg/mL apical, five independent studies, αS1 peptide 'or' its truncated peptides stated collectively; for Peptides identified in the basolateral chamber of PBEC monolayers after synthetic PIGSENSEKTTMPLW was added apically: synthetic PIGSENSEKTTMPLW 2 µg/mL apical
Experimental: Capillaries were isolated from the brain cortices of domestic pigs 5–6 months old as previously described. PBECs were cultured by plating the capillaries in T75 flasks coated with collagen IV (500 µg/mL) and fibronectin (100 µg/mL) in DMEM-F12 medium, supplemented with 10% plasma-derived serum (First Link, Wolverhampton, UK), heparin (15 U), 100 units/mL of penicillin and 100 µg/mL of streptomycin (PBEC growth medium), and cultured in an incubator with humidified 5% CO2/95% air at 37 °C. Puromycin (4 µg/mL) was added to the growth medium for the first three days to obtain a pure culture of PBECs.
Astrocyte conditioned medium was collected every third day from primary rat astrocytes, sterile filtered and frozen until use. Isolation of primary rat astrocytes and preparation of astrocyte conditioned media were carried out as described in [20].
PBECs were grown until 70–80% confluency as described above and then passaged onto polyester culture inserts with a pore size of 0.4 μm and a growth area of 1.12 cm^2 (Costar, Corning, NY, USA) at a density of 1.1 × 10^5 cells/cm^2 in the PBEC growth medium. In the basolateral chamber, the medium consisted of 1 mL of PBEC growth medium and 0.5 mL of astrocyte conditioned medium. The medium was supplemented with differentiation factors: 550 nM of hydrocortisone, 250 μM of 8-(4-chlorophenylthio)adenosine-3′,5′-cyclic monophosphate (cAMP) and 17.5 μM of RO-201724 two days after seeding. The next day, the integrity of the PBEC monolayer was confirmed by measuring the TEER. Only PBEC monolayers with TEER values higher than 800 Ω cm^2 were used for the transport analysis.
as §1
LC-MS/MS analysis was performed on a TripleTOF 6600 mass spectrometer equipped with an Exigent nanoLC 415 system (AB Sciex, Les Ulis, France). All samples were micro-purified using 3 M Empore C18 discs packed in pipette tips. The lyophilized samples were dissolved in 0.1% formic acid, injected on a trap column (2 cm × 100 µm inner diameter) and separated on an analytical column packed in-house in a pulled emitter (15 cm × 75 µm inner diameter). All columns were packed with ReproSil-Pur C18-AQ 3 µm resin (courtesy of Dr. Marisch, Ammerbuch-Entringen, Germany). […]

[3] = test system: pepsin, then trypsin, chymotrypsin and elastase; test: In vitro simulation of gastrointestinal digestion; format: in vitro ADME; details: 1 mg/mL, pepsin 1:100 w/w, 0.15 M NaCl pH 2.5, 60 min, 37 °C, chymotrypsin 1:100 and elastase 1:500 w/w, 50 mM ammonium bicarbonate pH 7.6, 37 °C, sampled 5, 30, 60 and 270 min, MALDI-MS (osteopontin: SDS-PAGE)
Experimental: The purified milk peptides and the synthesized PIGSENSEKTTMPLW and […] peptides were subjected to digestion, essentially as described in [5, 26] with few modifications. The peptides were dissolved in 0.15 M of NaCl with a pH of 2.5 at a concentration of 1 mg/mL and incubated with pepsin from porcine gastric mucosa in a 1:100 w/w enzyme to substrate ratio for 60 min at 37 °C. Before digestion with pancreatic proteases, the sample was lyophilized and washed twice in deionized water. Trypsin and chymotrypsin from a bovine pancreas (Worthington Biochemical Corporation, NJ, USA) (1:100 w/w) and elastase (Worthington) (1:500 w/w) were added in 50 mM of ammonium bicarbonate buffer (pH = 7.6) and the mixture was incubated for 60 min at 37 °C. In digests of the synthesized peptides, aliquots were sampled and analyzed after 5 min, 30 min, 60 min and 270 min incubation with the intestinal enzymes. Bovine milk osteopontin was purified as previously described and incubated with the digestive proteases to validate their activity. The digested milk peptides were separated by RP-HPLC on an Aeris C4 widepore column (Phenomenex, Værløse, Denmark) connected to a Shimadzu (Kyoto, Japan) HPLC system. The peptides were separated in 0.1% TFA (buffer A) and eluted with a gradient of 60% acetonitrile in 0.1% TFA (buffer B) at 40 °C. The gradient was developed over 59 min (0–5 min: 0% buffer B; 5–49 min: 0–98% buffer B; 49–59 min: 98% buffer B) at a flow rate of 0.85 mL/min. The peptides were detected by measuring the absorbance at 226 nm and analyzed by matrix-assisted laser desorption ionization time-of-flight mass spectrometry (MALDI-MS).
MALDI-MS was performed using a Bruker Autoflex III instrument (Bruker Daltonics, Bremen, Germany). The analysis was performed using a saturated solution of α-cyano-4-hydroxycinnamic acid. The instrument was operated in reflected positive ionization mode and calibrated in the mass range of 1000 to 3200 Da using a peptide calibration standard (Bruker Daltonics, Bremen, Germany). The theoretical peptide masses were calculated using the General Protein/Mass Analysis for Windows software (Lighthouse Data, Odense, Denmark).

[4] = test system: pepsin from porcine gastric mucosa, then trypsin and chymotrypsin from a bovine pancreas and elastase; test: synthetic peptide: pepsin in 0.15 M NaCl pH 2.5 (1:100 w/w, 60 min), then trypsin, chymotrypsin (1:100 w/w) and elastase (1:500 w/w) in 50 mM ammonium bicarbonate pH 7.6; details: 37 °C, up to 270 min

Substance: AAPAGAAIQS [endogenous bovine milk peptide from the polymeric immunoglobulin receptor]
- Peptide identified in the basolateral chamber of Caco-2 monolayers (transported) [1]: not transported across the Caco-2 monolayers
- Peptide identified in the basal compartment (brain side) of the PBEC BBB model (transported) [2]: identified in the basal compartment of the BBB model

Substance: AAPAGAAIQSR [endogenous bovine milk peptide from the polymeric immunoglobulin receptor]
- Peptide identified in the basolateral chamber of Caco-2 monolayers (transported) [1]: not transported across the Caco-2 monolayers
- Peptide identified in the basal compartment (brain side) of the PBEC BBB model (transported) [2]: identified in the basal compartment of the BBB model

Substance: Ac-YDGRGDSVVYGLRSKSKKFRR-NH2 [reference compound]
- Stability of the synthetic peptide / control in simulated gastrointestinal digestion [3]: cleaved after 5 min incubation with the proteases

Substance: EVIESPPEINTVQVTSTAV [endogenous bovine milk peptide from κ-casein]
- Peptide identified in the basolateral chamber of Caco-2 monolayers (transported) [1]: identified in the basolateral chamber

Substance: KNTMEHVSSSEESIISQETY [endogenous bovine milk peptide from αS2-casein]
- Peptide identified in the basolateral chamber of Caco-2 monolayers (transported) [1]: identified in the basolateral chamber

Substance: PIGSENSEKTT [truncated derivative of the αS1-casein peptide …]
- Peptides identified in the basolateral chamber of Caco-2 monolayers after synthetic PIGSENSEKTTMPLW was added apically [1]: identified in the basolateral chamber of both monolayers
- Peptides identified in the basolateral chamber of PBEC monolayers after synthetic PIGSENSEKTTMPLW was added apically [2]: identified in the basolateral chamber of both monolayers
- Peptide identified in the basal compartment (brain side) of the PBEC BBB model (transported) [2]: identified in all experiments

Substance: PIGSENSEKTTMP [truncated derivative of the αS1-casein peptide …]
- Peptide identified in the basolateral chamber of Caco-2 monolayers (transported) [1]: identified in the basolateral chamber
- Peptides identified in the basolateral chamber of Caco-2 monolayers after synthetic PIGSENSEKTTMPLW was added apically [1]: identified in the basolateral chamber of both monolayers
- Peptides identified in the basolateral chamber of PBEC monolayers after synthetic PIGSENSEKTTMPLW was added apically [2]: identified in the basolateral chamber of both monolayers
- Peptide identified in the basal compartment (brain side) of the PBEC BBB model (transported) [2]: identified in all experiments

Substance: PVLGPVRGPFPIIV [endogenous bovine milk peptide from β-casein]
- Peptide identified in the basolateral chamber of Caco-2 monolayers (transported) [1]: not transported across the Caco-2 monolayers
- Peptide identified in the basal compartment (brain side) of the PBEC BBB model (transported) [2]: identified in the basal compartment of the BBB model

Substance: YDGRGDSVVYGLRSKSKKFRR (N-terminally acetylated and amidated at the C terminal)
- fragment found [4]: YDGRGDSVVY, 5 min

Substance: osteopontin: bovine milk osteopontin, purified, incubated with the digestive proteases to validate their activity [reference compound]
- Stability of the synthetic peptide / control in simulated gastrointestinal digestion [3]: cleaved by all the proteases
